This note sets out measurements from article PMC4243253 (Biochemical Journal, 2014).

The target of experiment [1] is T1, BaKynB (Bacillus anthracis, UniProt Q81PP9).
T1 construct: gene kynB
Briefly: biochemical.

In experiment [2] the target is T1, BaKynB. Briefly: biochemical. The source holds these as a separate data set.

Read-outs that look alike come from different tables or passages of the source.

T1 sequence (Q81PP9 whole entry, looked up): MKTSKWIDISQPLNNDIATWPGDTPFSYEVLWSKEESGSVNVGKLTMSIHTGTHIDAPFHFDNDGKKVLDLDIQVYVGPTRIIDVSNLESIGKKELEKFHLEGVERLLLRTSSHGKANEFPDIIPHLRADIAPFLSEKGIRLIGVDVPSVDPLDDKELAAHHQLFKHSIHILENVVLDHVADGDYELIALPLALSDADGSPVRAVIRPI

`CC(=O)c1ccccc1N` [2-aminoacetophenone] came in with a dissociation constant (Kd) on BaKynB [1] of about 50 µM. On to `Nc1ccccc1C(=O)C[C@H](N)C(=O)O` [L-kynurenine, (S)-2-amino-4-(2-aminophenyl)-4-oxobutanoic acid], for which the Kd at BaKynB [2] is about 60 µM.

As usually defined, the Kd is the equilibrium constant for the complex coming apart. Read a high Kd as a looser complex.
